Results reported in article doi:10.1101/2020.02.10.942029v1 (biorxiv, 2020).

Biological target: human CatSper (CatSper channel, cation channel of sperm) (Homo sapiens, UniProt Q7RTX7+Q86XQ3+Q8NEC5+Q96P56)
Assay: whole-cell patch clamp of human sperm
Assay type: cell-based
Conditions: activator; 20 μM, NaDVF, pHi 7.3, room temperature

CCCCCCOC(=O)[C@]1(O)C[C@@H]2O[C@@]1(C)n1c3ccccc3c3c4c(c5c6ccccc6n2c5c31)C(=O)NC4 [KT 5720]
fold current enhancement at -80 mV: 1.48 ± 0.47 fold
